Test results reported in patent publication US5723109A, “Use of salicyclic acid derivatives for depigmenting the skin” (L'Oreal, priority 1995, dated 1998).

System: tyrosinase from human melanocytes
Test: dopa-oxidase activity of tyrosinase from human melanocytes
Format: cell-based
Experimental: Human melanocytes were prepared and cultured and then introduced into media containing different concentrations of 5-(n-octanoyl)salicylic acid (0.5 μM, 1 μM, 2 μM and 5 μM).
After three days, the melanocytes were "trypsinizated" in a 0.05%/0.02% trypsin/EDTA mixture in a phosphate buffer (50 mM at pH 6.8), washed three times in phosphate buffer containing 1% (w/v) of TRITON X-100 and subjected to ultrasound. After centrifuging, samples were withdrawn and mixed with 5 mM L-DOPA in phosphate buffer. The tyrosinase activity was evaluated by spectrophotometry. The increase in the absorbance at 475 nm is due to the formation of dopachrome from 5 mM DOPA being measured. The absorbance was read on a microplate reader at 25° C. for 60 min.
The activity of the cellular tyrosinase was measured with respect to a calibration range prepared with commercially available tyrosinase.

## CCCCCCCC(=O)c1ccc(O)c(C(=O)O)c1 [5-(n-octanoyl)salicylic acid]
Concentration of 5 μM, three days
  decrease of dopa-oxidase activity of the tyrosinase from the melanocytes: more particularly pronounced
Human melanocytes cultured three days with 0.5 μM, 1 μM, 2 μM and 5 μM, 5 mM L-DOPA, absorbance at 475 nm
  dopa-oxidase activity of the tyrosinase from the melanocytes (percentage of activity with respect to the starting activity, FIG. 1): significantly decreases
